Paper PMC12320245 (International Journal of Biological Sciences, 2025)

Legend:
[1] = system: activated microglia and astrocytes (Iba1, GFAP); conditions: post-seizure AMX treatment; cited from earlier work
TBI rats = assay: Controlled cortical impact TBI: modified neurological severity score; format: in vivo, rat
Experimental: This study used male Sprague-Dawley rats weighing 300-350 g and aged 8 weeks, obtained from DBL Co. (Chungcheongbuk-do, Republic of Korea). The rats were housed in a controlled environment with a temperature of 20 ± 2 °C, a relative humidity of 55 ± 5%, and a 12-hour light/dark cycle. They were provided ad libitum access to food and water. To minimize stress associated with transportation, animals underwent a one-week acclimatization period before the start of the experiments. All experimental procedures were conducted in compliance with the guidelines of the National Institutes of Health for the care and use of laboratory animals and were approved by the Hallym University Institutional Animal Care and Use Committee (protocol # Hallym 2022-23, approved on July 15, 2022). This manuscript follows the principles outlined in the Animal research: reporting in vivo experiments (ARRIVE) guidelines.
A controlled cortical impact (CCI) model was used to induce TBI in rats. Animals were anesthetized with 1-1.5% isoflurane in a 30:70 oxygen-to-nitrous oxide mixture and securely positioned in a stereotaxic frame. […]
The mNSS provides a quantitative measure of neurological function, with scores ranging from 0 (normal function) to 18 (severe dysfunction). The test evaluates multiple parameters to comprehensively assess neurological deficits: 1) Tail Suspension (3 points)—The rat's ability to be lifted by its tail is assessed, with higher scores indicating increased difficulty or inability to lift. 2) Balance and Posture (3 points)—The rat's ability to maintain proper posture and balance when placed on a flat surface is observed and scored. 3) Sensory Function ([…])—Sensory responses, including reactions to tactile or pain stimuli, are evaluated. 4) Beam Balance Test (6 points)—The rat's ability to walk on a narrow beam is assessed. […] 5) Reflexes and Abnormal Movements (4 points)—The presence or absence of reflexes, as well as abnormal behaviors or movements, are recorded and scored.

[2] = system: primary hippocampal neurons; assay: Scratch injury: p-PKA immunofluorescence; format: cell-based, rat; conditions: 24 hours after scratch injury
Experimental: Primary hippocampal neurons were obtained from embryonic day 18 (E18) Sprague-Dawley rat embryos. Pregnant rats were anesthetized using 2-3% isoflurane in a gas mixture of 70% nitrous oxide and 30% oxygen. Following euthanasia, the hippocampi were carefully dissected, minced, and enzymatically dissociated using TrypLE Express (Gibco, NY, USA) for 10 minutes at 37°C. The tissue was further mechanically dissociated using fire-polished glass pipettes, and the resulting cell suspension was filtered through a 70 μm cell strainer to remove debris. Neurons were seeded at a density of 3 × 10^5 cells per well in 24-well plates pre-coated with poly-L-lysine (Sigma-Aldrich, Saint Louis, MO, USA). Cells were maintained in neurobasal medium supplemented with B-27 (Thermo Fisher Scientific, Waltham, MA, USA), GlutaMAX (Gibco), and penicillin-streptomycin. The cultures were incubated at 37.5°C in a humidified atmosphere containing 5% CO₂. After seven days of growth, neurons were fixed with 4% paraformaldehyde (PFA) for 15 minutes at room temperature and subsequently stored at 4°C until their further use for immunostaining.
A scratch injury model was used to mimic TBI in vitro. […] After the treatment period, neuronal damage and recovery were assessed using appropriate evaluation methods. […]

PKA = PKA colorimetric activity assay (test tubes); format: biochemical; conditions: 0.1-10 µM
Experimental: PKA activity was assessed using a microplate-based kinase activity assay. Each well contained reaction buffer, a purified PKA enzyme, and test samples, followed by adding 10 μL of adenosine triphosphate (ATP) solution to initiate the reaction. Plates were incubated at 30°C for 90 minutes, before being washed four times with wash buffer to remove unbound components. Next, 25 μL each of phospho-PKA substrate antibody and horseradish peroxidase (HRP)-conjugated secondary antibody (donkey anti-rabbit IgG) were added to each well. The plates were incubated at room temperature (RT) for 60 minutes under continuous shaking to ensure uniform binding. To detect the phosphorylated substrate, 100 μL of tetramethylbenzidine (TMB) substrate was added to each well, followed by a 30-minute incubation at RT. The reaction was terminated by adding stop solution, and the absorbance was measured at 450 nm by using a microplate reader to quantify PKA activity.

astrocytes = assay: Lysosomal zinc (FluoZin-3 with LysoTracker); format: cell-based; conditions: 10 μM AMX for 30 minutes

SMILES: CC(C)c1ccc2oc3nc(N)c(C(=O)O)cc3c(=O)c2c1 [AMX, amlexanox]
- activated microglia and astrocytes (Iba1, GFAP) [1]: markedly decreased activated microglia and astrocytes
- beam balance test of mNSS (balance control, videos) (TBI rats; TBI-AMX vs TBI-vehicle): performed better
- ΔmNSS (TBI rats; between day 1 and subsequent time points, vs vehicle): greater improvements in ΔmNSS
- mNSS scores (TBI rats; days 1 to 7 after TBI, daily AMX 100 mg/kg i.p., vs vehicle): lower mNSS scores
- phosphorylation of PKA (immunofluorescence, Figure S2E-J) [2]: increasing the phosphorylation of PKA
- PKA activity in test tubes (PKA): activates PKA
- lysosomal zinc (FluoZin-3 fluorescence) (astrocytes): significant increase in zinc fluorescence within lysosomes
